Laboratory results from PubChem BioAssay (NCI).
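These data come from cells grown in 96-well plates and exposed to compound for 48 hours at five concentrations. Definition used: TGI = concentration required for complete inhibition of growth.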

Experiments:
NCI-H23 lung = test: NCI tumour cell line growth inhibition, 48 h
SR leukemia = test: NCI tumour cell line growth inhibition, 48 h

## Cn1c(=O)c2nc(NCCO)cnc2n(C)c1=O
NCI-H23 lung
  TGI: > 100 µM
SR leukemia
  TGI: > 100 µM

## O=C1CSC(C(N=Nc2ccc(Cl)cc2)c2nc3ccccc3[nH]2)=N1 (stereo not drawn)
NCI-H23 lung
  TGI: > 100 µM
SR leukemia
  TGI: > 100 µM

## Cc1cc2c(C(C)C)c(O)c(O)c(C=Nc3ccccc3)c2c(O)c1-c1c(C)cc2c(C(C)C)c(O)c(O)c(C=Nc3ccccc3)c2c1O
SR leukemia
  TGI: > 100 µM

## COC(=O)C1C(O)C(C)C(O)OC1C(C)C(O)C(C)/C=C\C=C(/C)C(=O)Nc1c(C)c(OC(C)=O)c2c(c1O)C(=O)C(C)=C1OCOC(/C(C)=C/C(C)=O)=C12 (stereo not drawn)
NCI-H23 lung
  TGI: 27.8 µM

## CC(C)[C@](O)(C(=O)OCC1=CCN2CC[C@@H](O)[C@@H]12)[C@H](C)O
NCI-H23 lung
  TGI: > 375 µM

## Cc1c(N=NN(C)C)cc[n+]([O-])c1C
NCI-H23 lung
  TGI: > 100 µM
